Test results as given in ChEMBL document CHEMBL1649459, “Analysis of cell membrane characteristics of in vitro-selected daptomycin-resistant strains of methicillin-resistant Staphylococcus aureus” (2009).
In brackets after ≈: the same amount, converted by molar mass.

How the values were obtained:
Assay type in all cases: functional
Staphylococcus aureus [1] = assay: Antimicrobial activity against methicillin-resistant Staphylococcus aureus MW2 CB1118 by Etest method
Staphylococcus aureus [2] = assay: Antimicrobial activity against methicillin-resistant Staphylococcus aureus MW2 CB2205 harboring […] MprF T345I, RpoB I953S,YycG S221P mutant after 20-day passage containing sublethal concentration of compound by Etest method; details: MW2 CB2205, 480 h
Staphylococcus aureus [3] = assay: Antimicrobial activity against methicillin-resistant Staphylococcus aureus MW2 CB2203 harboring […] MprF T345I, RpoB I953S mutant after 14-day passage containing sublethal concentration of compound by Etest method; details: MW2 CB2203, 336 h
Staphylococcus aureus [4] = assay: Antimicrobial activity against methicillin-resistant Staphylococcus aureus MW2 CB2202 harboring […] MprF T345I mutant after 5-day passage containing sublethal concentration of compound by Etest method; details: MW2 CB2202, 120 h
Staphylococcus aureus [5] = assay: Antimicrobial activity against methicillin-resistant Staphylococcus aureus MW2 CB2201 after 1-day passage containing sublethal concentration of compound by Etest method; details: MW2 CB2201, 24 h

SMILES: CCCCCCCCCC(=O)N[C@@H](Cc1c[nH]c2ccccc12)C(=O)N[C@H](CC(N)=O)C(=O)N[C@@H](CC(=O)O)C(=O)N[C@@H]1C(=O)NCC(=O)N[C@@H](CCCN)C(=O)N[C@@H](CC(=O)O)C(=O)N[C@H](C)C(=O)N[C@@H](CC(=O)O)C(=O)NCC(=O)N[C@H](CO)C(=O)N[C@@H]([C@H](C)CC(=O)O)C(=O)N[C@@H](CC(=O)c2ccccc2N)C(=O)O[C@@H]1C
- MIC (Staphylococcus aureus [1]): 1 µg/mL (≈ 0.617 µM)
- MIC (Staphylococcus aureus [2]): 12 µg/mL (≈ 7.4 µM)
- MIC (Staphylococcus aureus [3]): 6 µg/mL (≈ 3.7 µM)
- MIC (Staphylococcus aureus [4]): 3 µg/mL (≈ 1.85 µM)
- MIC (Staphylococcus aureus [5]): 1.5 µg/mL (≈ 0.926 µM)
